Laboratory results from PubChem BioAssay (NCI).
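Protocol summary: plate cells (96-well), add compound at 5 concentrations, incubate 48 h, interpolate endpoints linearly. TGI is the concentration that stops growth completely.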

System: OVCAR-4 ovarian
Test: DTP human tumour cell line panel, 48 h

Row | SMILES | TGI [µM]
1 | CC(=O)Oc1ccc2c3c1[C@H]1O[C@H]1c1cccc(c1-3)[C@@H]1O[C@H]21 | 18.6
2 | Cc1ccc(/C(O)=C/c2nc3ccccc3[nH]c2=O)cc1 | 4.04
3 | COc1ccc2c(c1)CCc1cc(C(N)=O)c3nnnn3c1-2 | > 100
4 | O=C(O)C1Cc2c([nH]c3ccccc23)C(CCCCO)N1 (stereo not given) | > 100
5 | Cc1cc(Cc2c(C)c(C)c(Cc3cc(C)cc(C(C)(C)C)c3O)c(C)c2C)c(O)c(C(C)(C)C)c1 | > 100

System: SK-MEL-5 melanoma
Test: DTP human tumour cell line panel, 48 h

Row | SMILES | TGI [µM]
6 | CC(=O)Oc1ccc2c3c1[C@H]1O[C@H]1c1cccc(c1-3)[C@@H]1O[C@H]21 | 12.1
7 | Cc1ccc(/C(O)=C/c2nc3ccccc3[nH]c2=O)cc1 | > 100
8 | COc1ccc2c(c1)CCc1cc(C(N)=O)c3nnnn3c1-2 | > 100
9 | O=C(O)C1Cc2c([nH]c3ccccc23)C(CCCCO)N1 (stereo not given) | > 100
10 | Cc1cc(Cc2c(C)c(C)c(Cc3cc(C)cc(C(C)(C)C)c3O)c(C)c2C)c(O)c(C(C)(C)C)c1 | > 100

System: IGROV1 ovarian
Test: DTP human tumour cell line panel, 48 h

Row | SMILES | TGI [µM]
11 | Cc1ccc(/C(O)=C/c2nc3ccccc3[nH]c2=O)cc1 | 5.92
12 | COc1ccc2c(c1)CCc1cc(C(N)=O)c3nnnn3c1-2 | > 100
13 | O=C(O)C1Cc2c([nH]c3ccccc23)C(CCCCO)N1 (stereo not given) | > 100
14 | Cc1cc(Cc2c(C)c(C)c(Cc3cc(C)cc(C(C)(C)C)c3O)c(C)c2C)c(O)c(C(C)(C)C)c1 | > 100

System: K-562 leukemia
Test: DTP human tumour cell line panel, 48 h

Row | SMILES | TGI [µM]
15 | CC(=O)Oc1ccc2c3c1[C@H]1O[C@H]1c1cccc(c1-3)[C@@H]1O[C@H]21 | > 100
16 | Cc1ccc(/C(O)=C/c2nc3ccccc3[nH]c2=O)cc1 | > 100
17 | COc1ccc2c(c1)CCc1cc(C(N)=O)c3nnnn3c1-2 | > 100
18 | O=C(O)C1Cc2c([nH]c3ccccc23)C(CCCCO)N1 (stereo not given) | > 100
19 | Cc1cc(Cc2c(C)c(C)c(Cc3cc(C)cc(C(C)(C)C)c3O)c(C)c2C)c(O)c(C(C)(C)C)c1 | > 100

System: T-47D breast
Test: DTP human tumour cell line panel, 48 h

Row | SMILES | TGI [µM]
20 | CC(=O)Oc1ccc2c3c1[C@H]1O[C@H]1c1cccc(c1-3)[C@@H]1O[C@H]21 | 6.79
21 | Cc1ccc(/C(O)=C/c2nc3ccccc3[nH]c2=O)cc1 | 16.3
22 | COc1ccc2c(c1)CCc1cc(C(N)=O)c3nnnn3c1-2 | > 100
23 | O=C(O)C1Cc2c([nH]c3ccccc23)C(CCCCO)N1 (stereo not given) | > 100
24 | Cc1cc(Cc2c(C)c(C)c(Cc3cc(C)cc(C(C)(C)C)c3O)c(C)c2C)c(O)c(C(C)(C)C)c1 | > 100

System: DU-145 prostate
Test: DTP human tumour cell line panel, 48 h

Row | SMILES | TGI [µM]
25 | CC(=O)Oc1ccc2c3c1[C@H]1O[C@H]1c1cccc(c1-3)[C@@H]1O[C@H]21 | 20.8
26 | Cc1ccc(/C(O)=C/c2nc3ccccc3[nH]c2=O)cc1 | 21.5
27 | COc1ccc2c(c1)CCc1cc(C(N)=O)c3nnnn3c1-2 | > 100
28 | O=C(O)C1Cc2c([nH]c3ccccc23)C(CCCCO)N1 (stereo not given) | > 100
29 | Cc1cc(Cc2c(C)c(C)c(Cc3cc(C)cc(C(C)(C)C)c3O)c(C)c2C)c(O)c(C(C)(C)C)c1 | > 100

System: 786-0 renal
Test: DTP human tumour cell line panel, 48 h

Row | SMILES | TGI [µM]
30 | CC(=O)Oc1ccc2c3c1[C@H]1O[C@H]1c1cccc(c1-3)[C@@H]1O[C@H]21 | 6.01
31 | Cc1ccc(/C(O)=C/c2nc3ccccc3[nH]c2=O)cc1 | 5.61
32 | COc1ccc2c(c1)CCc1cc(C(N)=O)c3nnnn3c1-2 | > 100
33 | O=C(O)C1Cc2c([nH]c3ccccc23)C(CCCCO)N1 (stereo not given) | > 100
34 | Cc1cc(Cc2c(C)c(C)c(Cc3cc(C)cc(C(C)(C)C)c3O)c(C)c2C)c(O)c(C(C)(C)C)c1 | > 100

System: SK-OV-3 ovarian
Test: DTP human tumour cell line panel, 48 h

Row | SMILES | TGI [µM]
35 | CC(=O)Oc1ccc2c3c1[C@H]1O[C@H]1c1cccc(c1-3)[C@@H]1O[C@H]21 | 27.9
36 | Cc1ccc(/C(O)=C/c2nc3ccccc3[nH]c2=O)cc1 | 5.64
37 | COc1ccc2c(c1)CCc1cc(C(N)=O)c3nnnn3c1-2 | > 100
38 | O=C(O)C1Cc2c([nH]c3ccccc23)C(CCCCO)N1 (stereo not given) | > 100
39 | Cc1cc(Cc2c(C)c(C)c(Cc3cc(C)cc(C(C)(C)C)c3O)c(C)c2C)c(O)c(C(C)(C)C)c1 | > 100

System: M14 melanoma
Test: DTP human tumour cell line panel, 48 h

Row | SMILES | TGI [µM]
40 | CC(=O)Oc1ccc2c3c1[C@H]1O[C@H]1c1cccc(c1-3)[C@@H]1O[C@H]21 | 10.2
41 | Cc1ccc(/C(O)=C/c2nc3ccccc3[nH]c2=O)cc1 | 73.4
42 | COc1ccc2c(c1)CCc1cc(C(N)=O)c3nnnn3c1-2 | > 100
43 | O=C(O)C1Cc2c([nH]c3ccccc23)C(CCCCO)N1 (stereo not given) | > 100
44 | Cc1cc(Cc2c(C)c(C)c(Cc3cc(C)cc(C(C)(C)C)c3O)c(C)c2C)c(O)c(C(C)(C)C)c1 | > 100

System: OVCAR-3 ovarian
Test: DTP human tumour cell line panel, 48 h

Row | SMILES | TGI [µM]
45 | CC(=O)Oc1ccc2c3c1[C@H]1O[C@H]1c1cccc(c1-3)[C@@H]1O[C@H]21 | 11.8
46 | Cc1ccc(/C(O)=C/c2nc3ccccc3[nH]c2=O)cc1 | 11.2
47 | COc1ccc2c(c1)CCc1cc(C(N)=O)c3nnnn3c1-2 | > 100
48 | O=C(O)C1Cc2c([nH]c3ccccc23)C(CCCCO)N1 (stereo not given) | > 100
49 | Cc1cc(Cc2c(C)c(C)c(Cc3cc(C)cc(C(C)(C)C)c3O)c(C)c2C)c(O)c(C(C)(C)C)c1 | > 100

System: NCI-H226 lung
Test: DTP human tumour cell line panel, 48 h

Row | SMILES | TGI [µM]
50 | CC(=O)Oc1ccc2c3c1[C@H]1O[C@H]1c1cccc(c1-3)[C@@H]1O[C@H]21 | 56.8
51 | Cc1ccc(/C(O)=C/c2nc3ccccc3[nH]c2=O)cc1 | 6.4
52 | COc1ccc2c(c1)CCc1cc(C(N)=O)c3nnnn3c1-2 | > 100
53 | O=C(O)C1Cc2c([nH]c3ccccc23)C(CCCCO)N1 (stereo not given) | > 100
54 | Cc1cc(Cc2c(C)c(C)c(Cc3cc(C)cc(C(C)(C)C)c3O)c(C)c2C)c(O)c(C(C)(C)C)c1 | > 100

System: UACC-257 melanoma
Test: DTP human tumour cell line panel, 48 h

Row | SMILES | TGI [µM]
55 | CC(=O)Oc1ccc2c3c1[C@H]1O[C@H]1c1cccc(c1-3)[C@@H]1O[C@H]21 | 32.9
56 | Cc1ccc(/C(O)=C/c2nc3ccccc3[nH]c2=O)cc1 | 87.4
57 | COc1ccc2c(c1)CCc1cc(C(N)=O)c3nnnn3c1-2 | > 100
58 | O=C(O)C1Cc2c([nH]c3ccccc23)C(CCCCO)N1 (stereo not given) | > 100
59 | Cc1cc(Cc2c(C)c(C)c(Cc3cc(C)cc(C(C)(C)C)c3O)c(C)c2C)c(O)c(C(C)(C)C)c1 | > 100

System: TK-10 renal
Test: DTP human tumour cell line panel, 48 h

Row | SMILES | TGI [µM]
60 | CC(=O)Oc1ccc2c3c1[C@H]1O[C@H]1c1cccc(c1-3)[C@@H]1O[C@H]21 | 31.8
61 | Cc1ccc(/C(O)=C/c2nc3ccccc3[nH]c2=O)cc1 | 11.1
62 | COc1ccc2c(c1)CCc1cc(C(N)=O)c3nnnn3c1-2 | > 100
63 | O=C(O)C1Cc2c([nH]c3ccccc23)C(CCCCO)N1 (stereo not given) | > 100
64 | Cc1cc(Cc2c(C)c(C)c(Cc3cc(C)cc(C(C)(C)C)c3O)c(C)c2C)c(O)c(C(C)(C)C)c1 | > 100

System: KM12 colon
Test: DTP human tumour cell line panel, 48 h

Row | SMILES | TGI [µM]
65 | CC(=O)Oc1ccc2c3c1[C@H]1O[C@H]1c1cccc(c1-3)[C@@H]1O[C@H]21 | 27.5
66 | Cc1ccc(/C(O)=C/c2nc3ccccc3[nH]c2=O)cc1 | > 100
67 | COc1ccc2c(c1)CCc1cc(C(N)=O)c3nnnn3c1-2 | > 100
68 | O=C(O)C1Cc2c([nH]c3ccccc23)C(CCCCO)N1 (stereo not given) | > 100
69 | Cc1cc(Cc2c(C)c(C)c(Cc3cc(C)cc(C(C)(C)C)c3O)c(C)c2C)c(O)c(C(C)(C)C)c1 | > 100

System: PC-3 prostate
Test: DTP human tumour cell line panel, 48 h

Row | SMILES | TGI [µM]
70 | CC(=O)Oc1ccc2c3c1[C@H]1O[C@H]1c1cccc(c1-3)[C@@H]1O[C@H]21 | 32.9
